Laboratory results from the supplement of paper PMC8671470.

tested on: Mono-Mac-6; experiment: cell viability (% survival relative to DMSO control, bortezomib = 0%); higher = less cytotoxic; conditions: 1 nM; 72 h
Procedure, shortened: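 Fifteen myeloid leukaemia cell lines were exposed to compounds at 1, 10, 100, 1000 or 10000 nM in 384-well plates for 72 h at 37 °C and 5% CO2. Viability was read by CellTiter-Glo luminescence and normalised, with vehicle as 100% and a 10 µM positive control as 0%. Values are percent survival averaged over duplicates.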

Row | Compound | cell viability
1 | Cn1cc(C[C@@H](N)C(=O)O)c2ccccc21 [Indoximod] | 104%
2 | O=C(Oc1ccc([N+](=O)[O-])cc1)N1CCC(C(O)(c2ccc3c(c2)OCO3)c2ccc3c(c2)OCO3)CC1 [JZL184] | 90.2%
3 | O=C1N[C@@H]2[C@@H](O)[C@@H](O)[C@H](O)[C@@H](CO)N2C1=O [Kifunensine] | 91.8%
4 | CC(C)(CCCCCCCCCCC(C)(C)CC(=O)O)CC(=O)O [MEDICA 16] | 99.8%
5 | CC(C)c1ccc2c(c1)c(SC(C)(C)C)c(CC(C)(C)C(=O)O)n2Cc1ccc(Cl)cc1 [MK-886] | 111%
6 | O=C(CCl)N(CCCNC(=O)C(F)(F)F)c1ccc([N+](=O)[O-])cc1 [ML175] | 101%
7 | CN(C)C(=N)NC(=N)N [Metformin] | 113%
8 | Cl.OC[C@H]1NC[C@H](O)[C@@H](O)[C@H]1O [Migalastat] | 102%
9 | OCCN1C[C@H](O)[C@@H](O)[C@H](O)[C@H]1CO [Miglitol] | 106%
10 | CCCCCCCNC=O [N-Heptyl-Formamide] | 110%
11 | CC(C)(F)C[C@H](N[C@@H](c1ccc(-c2ccc(S(C)(=O)=O)cc2)cc1)C(F)(F)F)C(=O)NC1(C#N)CC1 [Odanacatib] | 96.4%
12 | CNC(=C[N+](=O)[O-])NCCSCc1ccc(CN(C)C)o1 [Ranitidine] | 94.6%
13 | C#CCN[C@@H]1CCc2ccccc21 [Rasagiline] | 92.4%
14 | NC(CCC(=O)NC(CSCc1ccc(Br)cc1)C(=O)NCC(=O)OC1CCCC1)C(=O)OC1CCCC1 (stereo not given) [S-para-Bromobenzylglutathione cyclopentyl diester] | 108%
15 | COc1cc(C2Oc3cc(C4Oc5cc(O)cc(O)c5C(=O)C4O)ccc3OC2CO)ccc1O (stereo not given) [Silibinin] | 96.4%
16 | Cn1c2cc(S(C)=O)sc2c2cnn(Cc3cccc(N)c3)c(=O)c21 (stereo not given) [TEPP-46] | 102%
17 | CCCCCCCCCCCCCCOc1ccc(C(=O)O)o1 [TOFA] | 113%
18 | CN1CC(=O)N2[C@H](c3ccc4c(c3)OCO4)c3[nH]c4ccccc4c3C[C@@H]2C1=O [Tadalafil] | 99.8%
19 | Cl.NC1=CCCN1Cc1nc(O)nc(O)c1Cl [Tipiracil] | 122%
20 | CCCC(CCC)C(=O)O [Valproic acid] | 96.3%
21 | OCC(CO)N[C@H]1C[C@](O)(CO)[C@@H](O)[C@H](O)[C@H]1O [Voglibose] | 102%

same assay, conditions: 10 nM; 72 h

Row | Compound | cell viability
22 | Cn1cc(C[C@@H](N)C(=O)O)c2ccccc21 [Indoximod] | 102%
23 | O=C(Oc1ccc([N+](=O)[O-])cc1)N1CCC(C(O)(c2ccc3c(c2)OCO3)c2ccc3c(c2)OCO3)CC1 [JZL184] | 111%
24 | O=C1N[C@@H]2[C@@H](O)[C@@H](O)[C@H](O)[C@@H](CO)N2C1=O [Kifunensine] | 102%
25 | CC(C)(CCCCCCCCCCC(C)(C)CC(=O)O)CC(=O)O [MEDICA 16] | 114%
26 | CC(C)c1ccc2c(c1)c(SC(C)(C)C)c(CC(C)(C)C(=O)O)n2Cc1ccc(Cl)cc1 [MK-886] | 109%
27 | O=C(CCl)N(CCCNC(=O)C(F)(F)F)c1ccc([N+](=O)[O-])cc1 [ML175] | 104%
28 | CN(C)C(=N)NC(=N)N [Metformin] | 89.7%
29 | Cl.OC[C@H]1NC[C@H](O)[C@@H](O)[C@H]1O [Migalastat] | 87.4%
30 | OCCN1C[C@H](O)[C@@H](O)[C@H](O)[C@H]1CO [Miglitol] | 102%
31 | CCCCCCCNC=O [N-Heptyl-Formamide] | 97.3%
32 | CC(C)(F)C[C@H](N[C@@H](c1ccc(-c2ccc(S(C)(=O)=O)cc2)cc1)C(F)(F)F)C(=O)NC1(C#N)CC1 [Odanacatib] | 101%
33 | CNC(=C[N+](=O)[O-])NCCSCc1ccc(CN(C)C)o1 [Ranitidine] | 96.6%
34 | C#CCN[C@@H]1CCc2ccccc21 [Rasagiline] | 105%
35 | NC(CCC(=O)NC(CSCc1ccc(Br)cc1)C(=O)NCC(=O)OC1CCCC1)C(=O)OC1CCCC1 (stereo not given) [S-para-Bromobenzylglutathione cyclopentyl diester] | 96.5%
36 | COc1cc(C2Oc3cc(C4Oc5cc(O)cc(O)c5C(=O)C4O)ccc3OC2CO)ccc1O (stereo not given) [Silibinin] | 91.2%
37 | Cn1c2cc(S(C)=O)sc2c2cnn(Cc3cccc(N)c3)c(=O)c21 (stereo not given) [TEPP-46] | 106%
38 | CCCCCCCCCCCCCCOc1ccc(C(=O)O)o1 [TOFA] | 94.5%
39 | CN1CC(=O)N2[C@H](c3ccc4c(c3)OCO4)c3[nH]c4ccccc4c3C[C@@H]2C1=O [Tadalafil] | 93%
40 | Cl.NC1=CCCN1Cc1nc(O)nc(O)c1Cl [Tipiracil] | 96.2%
41 | CCCC(CCC)C(=O)O [Valproic acid] | 98.2%
42 | OCC(CO)N[C@H]1C[C@](O)(CO)[C@@H](O)[C@H](O)[C@H]1O [Voglibose] | 96%

same assay, conditions: 100 nM; 72 h

Row | Compound | cell viability
43 | Cn1cc(C[C@@H](N)C(=O)O)c2ccccc21 [Indoximod] | 92.9%
44 | O=C(Oc1ccc([N+](=O)[O-])cc1)N1CCC(C(O)(c2ccc3c(c2)OCO3)c2ccc3c(c2)OCO3)CC1 [JZL184] | 104%
45 | O=C1N[C@@H]2[C@@H](O)[C@@H](O)[C@H](O)[C@@H](CO)N2C1=O [Kifunensine] | 107%
46 | CC(C)(CCCCCCCCCCC(C)(C)CC(=O)O)CC(=O)O [MEDICA 16] | 102%
47 | CC(C)c1ccc2c(c1)c(SC(C)(C)C)c(CC(C)(C)C(=O)O)n2Cc1ccc(Cl)cc1 [MK-886] | 91.5%
48 | O=C(CCl)N(CCCNC(=O)C(F)(F)F)c1ccc([N+](=O)[O-])cc1 [ML175] | 98.2%
49 | CN(C)C(=N)NC(=N)N [Metformin] | 95.5%
50 | Cl.OC[C@H]1NC[C@H](O)[C@@H](O)[C@H]1O [Migalastat] | 104%
51 | OCCN1C[C@H](O)[C@@H](O)[C@H](O)[C@H]1CO [Miglitol] | 98.1%
52 | CCCCCCCNC=O [N-Heptyl-Formamide] | 101%
53 | CC(C)(F)C[C@H](N[C@@H](c1ccc(-c2ccc(S(C)(=O)=O)cc2)cc1)C(F)(F)F)C(=O)NC1(C#N)CC1 [Odanacatib] | 101%
54 | CNC(=C[N+](=O)[O-])NCCSCc1ccc(CN(C)C)o1 [Ranitidine] | 115%
55 | C#CCN[C@@H]1CCc2ccccc21 [Rasagiline] | 101%
56 | NC(CCC(=O)NC(CSCc1ccc(Br)cc1)C(=O)NCC(=O)OC1CCCC1)C(=O)OC1CCCC1 (stereo not given) [S-para-Bromobenzylglutathione cyclopentyl diester] | 88.8%
57 | COc1cc(C2Oc3cc(C4Oc5cc(O)cc(O)c5C(=O)C4O)ccc3OC2CO)ccc1O (stereo not given) [Silibinin] | 94.1%
58 | Cn1c2cc(S(C)=O)sc2c2cnn(Cc3cccc(N)c3)c(=O)c21 (stereo not given) [TEPP-46] | 103%
59 | CCCCCCCCCCCCCCOc1ccc(C(=O)O)o1 [TOFA] | 99.8%
60 | CN1CC(=O)N2[C@H](c3ccc4c(c3)OCO4)c3[nH]c4ccccc4c3C[C@@H]2C1=O [Tadalafil] | 94.8%
61 | Cl.NC1=CCCN1Cc1nc(O)nc(O)c1Cl [Tipiracil] | 107%
62 | CCCC(CCC)C(=O)O [Valproic acid] | 98.3%
63 | OCC(CO)N[C@H]1C[C@](O)(CO)[C@@H](O)[C@H](O)[C@H]1O [Voglibose] | 109%

same assay, conditions: 1000 nM; 72 h

Row | Compound | cell viability
64 | Cn1cc(C[C@@H](N)C(=O)O)c2ccccc21 [Indoximod] | 97.7%
65 | O=C(Oc1ccc([N+](=O)[O-])cc1)N1CCC(C(O)(c2ccc3c(c2)OCO3)c2ccc3c(c2)OCO3)CC1 [JZL184] | 103%
66 | O=C1N[C@@H]2[C@@H](O)[C@@H](O)[C@H](O)[C@@H](CO)N2C1=O [Kifunensine] | 88.7%
67 | CC(C)(CCCCCCCCCCC(C)(C)CC(=O)O)CC(=O)O [MEDICA 16] | 102%
68 | CC(C)c1ccc2c(c1)c(SC(C)(C)C)c(CC(C)(C)C(=O)O)n2Cc1ccc(Cl)cc1 [MK-886] | 101%
69 | O=C(CCl)N(CCCNC(=O)C(F)(F)F)c1ccc([N+](=O)[O-])cc1 [ML175] | 44.6%
70 | CN(C)C(=N)NC(=N)N [Metformin] | 97.9%
71 | Cl.OC[C@H]1NC[C@H](O)[C@@H](O)[C@H]1O [Migalastat] | 98.3%
72 | OCCN1C[C@H](O)[C@@H](O)[C@H](O)[C@H]1CO [Miglitol] | 91.3%
73 | CCCCCCCNC=O [N-Heptyl-Formamide] | 114%
74 | CC(C)(F)C[C@H](N[C@@H](c1ccc(-c2ccc(S(C)(=O)=O)cc2)cc1)C(F)(F)F)C(=O)NC1(C#N)CC1 [Odanacatib] | 99.2%
75 | CNC(=C[N+](=O)[O-])NCCSCc1ccc(CN(C)C)o1 [Ranitidine] | 95.6%
76 | C#CCN[C@@H]1CCc2ccccc21 [Rasagiline] | 80.9%
77 | NC(CCC(=O)NC(CSCc1ccc(Br)cc1)C(=O)NCC(=O)OC1CCCC1)C(=O)OC1CCCC1 (stereo not given) [S-para-Bromobenzylglutathione cyclopentyl diester] | 90.6%
78 | COc1cc(C2Oc3cc(C4Oc5cc(O)cc(O)c5C(=O)C4O)ccc3OC2CO)ccc1O (stereo not given) [Silibinin] | 99%
79 | Cn1c2cc(S(C)=O)sc2c2cnn(Cc3cccc(N)c3)c(=O)c21 (stereo not given) [TEPP-46] | 102%
80 | CCCCCCCCCCCCCCOc1ccc(C(=O)O)o1 [TOFA] | 94.2%
81 | CN1CC(=O)N2[C@H](c3ccc4c(c3)OCO4)c3[nH]c4ccccc4c3C[C@@H]2C1=O [Tadalafil] | 95.4%
82 | Cl.NC1=CCCN1Cc1nc(O)nc(O)c1Cl [Tipiracil] | 100%
83 | CCCC(CCC)C(=O)O [Valproic acid] | 105%
84 | OCC(CO)N[C@H]1C[C@](O)(CO)[C@@H](O)[C@H](O)[C@H]1O [Voglibose] | 86.7%

same assay, conditions: 10000 nM; 72 h

Row | Compound | cell viability
85 | Cn1cc(C[C@@H](N)C(=O)O)c2ccccc21 [Indoximod] | 91.8%
86 | O=C(Oc1ccc([N+](=O)[O-])cc1)N1CCC(C(O)(c2ccc3c(c2)OCO3)c2ccc3c(c2)OCO3)CC1 [JZL184] | 92.3%
87 | O=C1N[C@@H]2[C@@H](O)[C@@H](O)[C@H](O)[C@@H](CO)N2C1=O [Kifunensine] | 92.4%
88 | CC(C)(CCCCCCCCCCC(C)(C)CC(=O)O)CC(=O)O [MEDICA 16] | 111%
89 | CC(C)c1ccc2c(c1)c(SC(C)(C)C)c(CC(C)(C)C(=O)O)n2Cc1ccc(Cl)cc1 [MK-886] | 108%
90 | O=C(CCl)N(CCCNC(=O)C(F)(F)F)c1ccc([N+](=O)[O-])cc1 [ML175] | -1.09%
91 | CN(C)C(=N)NC(=N)N [Metformin] | 91.8%
92 | Cl.OC[C@H]1NC[C@H](O)[C@@H](O)[C@H]1O [Migalastat] | 103%
93 | OCCN1C[C@H](O)[C@@H](O)[C@H](O)[C@H]1CO [Miglitol] | 99.1%
94 | CCCCCCCNC=O [N-Heptyl-Formamide] | 96.8%
95 | CC(C)(F)C[C@H](N[C@@H](c1ccc(-c2ccc(S(C)(=O)=O)cc2)cc1)C(F)(F)F)C(=O)NC1(C#N)CC1 [Odanacatib] | 85.5%
96 | CNC(=C[N+](=O)[O-])NCCSCc1ccc(CN(C)C)o1 [Ranitidine] | 113%
97 | C#CCN[C@@H]1CCc2ccccc21 [Rasagiline] | 100%
98 | NC(CCC(=O)NC(CSCc1ccc(Br)cc1)C(=O)NCC(=O)OC1CCCC1)C(=O)OC1CCCC1 (stereo not given) [S-para-Bromobenzylglutathione cyclopentyl diester] | 63.3%
99 | COc1cc(C2Oc3cc(C4Oc5cc(O)cc(O)c5C(=O)C4O)ccc3OC2CO)ccc1O (stereo not given) [Silibinin] | 98.9%
100 | Cn1c2cc(S(C)=O)sc2c2cnn(Cc3cccc(N)c3)c(=O)c21 (stereo not given) [TEPP-46] | 83%
101 | CCCCCCCCCCCCCCOc1ccc(C(=O)O)o1 [TOFA] | 105%
102 | CN1CC(=O)N2[C@H](c3ccc4c(c3)OCO4)c3[nH]c4ccccc4c3C[C@@H]2C1=O [Tadalafil] | 99%
103 | Cl.NC1=CCCN1Cc1nc(O)nc(O)c1Cl [Tipiracil] | 96.5%
104 | CCCC(CCC)C(=O)O [Valproic acid] | 99.1%
105 | OCC(CO)N[C@H]1C[C@](O)(CO)[C@@H](O)[C@H](O)[C@H]1O [Voglibose] | 91.8%
